Reference: patent publication US8124635B2, “Antimicrobial composition useful for preserving wood” (Rohm and Haas Company, priority 2006, dated 2012)
Read-outs that look alike come from different tables or passages of the source.

Experiments:
Type in all cases: cell-based
[1] = tested on: Pseudomonas aeruginosa (Ps. aeruginosa—ATCC # 9027); assay: Microtiter plate MIC / synergy test (Kull synergy index), M9GY medium, 30° C.; conditions: for MIC: Pseudomonas aeruginosa, read-out: MIC of the component acting alone (end point); for Cb = Component B (OIT), end-point concentration (MIC), alone or in mixture: Component A propiconazole; for Ca = Component A (propiconazole), end-point concentration (MIC), alone or in mixture: Component B OIT
Text: (§1) One measure of synergism is the industrially accepted method described by Kull, F. C.; Eisman, P. C.; Sylwestrowicz, H. D. and Mayer, R. L., in Applied Microbiology 9:538-541 (1961), using the ratio determined by the formula: Ca/CA+Cb/CB=Synergy Index (“SI”) wherein: • CA=concentration of compound A (first component) in ppm, acting alone, which produced an end point (MIC of Compound A). • Ca=concentration of compound A in ppm, in the mixture, which produced an end point. • CB=concentration of compound B (second component) in ppm, acting alone, which produced an end point (MIC of Compound B). • Cb=concentration of compound B in ppm, in the mixture, which produced an end point.
(§2) When the sum of Ca/CA and Cb/CB is greater than one, antagonism is indicated. […] The lower the SI, the greater the synergy shown by that particular mixture. The minimum inhibitory concentration (MIC) of an antimicrobial compound is the lowest concentration tested under a specific set of conditions that prevents the growth of added microorganisms.
(§3) Synergy tests were conducted using standard microtiter plate assays with media designed for optimal growth of the test microorganism. Minimal salt medium supplemented with 0.2% glucose and 0.1% yeast extract (M9GY medium) was used for bacteria testing; Potato Dextrose Broth (PDB medium) was used for yeast and mold testing. In this method, a wide range of combinations of microbicides was tested by conducting high resolution MIC assays in the presence of various concentrations of biocides. High resolution MICs were determined by adding varying amounts of microbicide to one column of a microtitre plate and doing subsequent ten-fold dilutions using an automated liquid handling system to obtain a series of end points ranging of active ingredient. The synergy of the combinations of the present invention was determined against two bacteria, Pseudomonas aeruginosa (Ps. aeruginosa—ATCC # 9027) and Staphylococcus aureus (S. aureus—ATCC # 6538), a yeast, Candida albicans (C. albicans—ATCC # 10231), and a mold, Aspergillus niger (A. niger—ATCC 16404). The bacteria were used at a concentration of about 1-6×10^6 bacteria per mL and the yeast and mold at 1−5×10^5 fungi per mL. These microorganisms are representative of natural contaminants in many consumer and industrial applications. […] (yeast and mold) or 30° C. (bacteria).

[2] = tested on: Gloeophyllum trabeum (G. trabeum—ATCC # 11593); assay: Application test: treated paper disc on Malt agar plate, fungal growth observed visually after 4 weeks; conditions: G. trabeum ATCC # 11539, contact time 4 weeks
Method: (§4) An application test was performed to evaluate synergy of DCOIT/thifluzamide alone and in combination against Gloeophyllum trabeum (G. trabeum—ATCC # 11593) and Trametes vesicolor (T. vesicolor—ATCC # 4262). A paper disc was dipped in the treatment solution, air dried and placed on Malt agar plate streaked with the test organisms. The surface of the disc was also swabbed with the test organisms. The agar plates were incubated at 25° C. for 4 weeks. Fungal growth was then observed visually.

[3] = tested on: Trametes vesicolor (T. vesicolor—ATCC # 4262); assay: as above; conditions: T. vesicolor ATCC # 42462, contact time 4 weeks
Method: as §4

[4] = tested on: Staphylococcus aureus (S. aureus—ATCC # 6538); assay: Microtiter plate MIC / synergy test (Kull synergy index), M9GY medium, 30° C.; parameters: Ca = Component A (tebuconazole), end-point concentration (MIC), alone or in mixture / Ca = Component A (propiconazole), end-point concentration (MIC), alone or in mixture: unit: ppm; conditions: for MIC: Staphylococcus aureus, read-out: MIC of the component acting alone (end point); for Cb = Component B (OIT), end-point concentration (MIC), alone or in mixture: Component A propiconazole
Text: as §1, §2, §3

[5] = tested on: Candida albicans (C. albicans—ATCC # 10231); assay: Microtiter plate MIC / synergy test (Kull synergy index), PDB medium, 25° C.; parameters: Ca = Component A (tebuconazole), end-point concentration (MIC), alone or in mixture / Ca = Component A (propiconazole), end-point concentration (MIC), alone or in mixture: unit: ppm; conditions: for MIC of the component acting alone (end point) / MIC: C. albicans; for Cb = Component B (OIT), end-point concentration (MIC), alone or in mixture: Component A propiconazole; for MIC: Candida albicans, read-out: MIC of the component acting alone (end point)
Text: as §1, §2, §3

[6] = tested on: Aspergillus niger (A. niger—ATCC 16404); assay: as above; conditions: for MIC: Aspergillus niger, read-out: MIC of the component acting alone (end point)
Text: as §1, §2, §3

[7] = ATCC9027, 24 h, Ps. aeruginosa, contact time 24 hour
[8] = ATCC9027, 48 h, Ps. aeruginosa, contact time 48 hour
[9] = ATCC6538, 24 h, S. aureus, contact time 24 hour
[10] = ATCC6538, 48 h, S. aureus, contact time 48 hour
[11] = Ps. aeruginosa, contact time 24 hour
[12] = S. aureus, contact time 24 hour
[13] = S. aureus, contact time 48 hour
[14] = Ps. Aeruginosa ATCC # 9027, contact time 24 hour
[15] = Ps. Aeruginosa ATCC # 9027, contact time 48 hour
[16] = ATCC10231, 24 h, contact time 24 hour
[17] = ATCC16404, 72 h, A. niger, contact time 3 days
[18] = ATCC16404, 168 h, A. niger, contact time 7 days
[19] = C. albicans ATCC # 10231, contact time 24 hour, Component B CMIT/MIT
[20] = C. albicans ATCC # 10231, contact time 24 hour, Component B copper 8-hydroxyquinoline
[21] = C. albicans ATCC # 10231, contact time 48 hour, Component B copper 8-hydroxyquinoline
[22] = A. niger ATCC # 16404, contact time 3 days, Component B copper 8-hydroxyquinoline
[23] = A. niger ATCC # 16404, contact time 7 days, Component B copper 8-hydroxyquinoline
[24] = S. aureus, contact time 24 hour, Component B CMIT/MIT
[25] = S. aureus, contact time 24 hour, Component B copper 8-hydroxyquinoline
[26] = S. aureus, contact time 48 hour, Component B copper 8-hydroxyquinoline

`CCCCCCCCn1sc(Cl)c(Cl)c1=O` [DCOIT, 4,5-dichloro-2-n-octyl-4-isothiazolin-3-one] was tested, and the MIC [1, 7] was 3.2 µg/mL, the MIC [1, 8] was 5.3 µg/mL and the “Ca = Component A (DCOIT), end-point concentration, alone or in mixture” value ([2]; Component B thifluzamide) was 320. For the same compound, the “Ca = Component A (DCOIT), end-point concentration, alone or in mixture” value ([3]; Component B thifluzamide) was 320, the MIC [4, 9] was 0.1 µg/mL and the MIC [4, 10] was 0.4 µg/mL.

For `CCCCNC(=O)OCC#CI` [IPBC, 3-iodo-2-propynyl-butylcarbamate], the “MIC of the component acting alone (end point)” value (shortened to “MIC … (end point)”) [1, 11] was 263 ppm, the “MIC … (end point)” value ([1]; Ps. aeruginosa, contact time 48 hour) was 263 ppm and the “MIC … (end point)” value ([5]; contact time 24 hour) was 4.2 ppm. For the same compound, the “MIC … (end point)” value ([5]; contact time 48 hour) was 4.2 ppm, the “MIC … (end point)” value ([6]; A. niger, contact time 3 days) was 0.4 ppm and the “MIC … (end point)” value [4, 12] was 34 ppm. For the same compound, the “MIC … (end point)” value [4, 13] was 42 ppm.

For `Cn1sccc1=O` [MI, 2-methyl-4-isothiazolin-3-one], the MIC ([1]; ATCC9027, 24 h) was 20 µg/mL, the MIC ([1]; ATCC9027, 48 h) was 20 µg/mL and the MIC ([6]; ATCC16404, 72 h) was 450 µg/mL. For the same compound, the MIC ([6]; ATCC16404, 168 h) was 450 µg/mL, the MIC ([4]; ATCC6538, 24 h) was 30 µg/mL and the MIC ([4]; ATCC6538, 48 h) was 40 µg/mL.

With `CCCCCCCCn1sccc1=O` [OIT, 2-n-octyl-4-isothiazolin-3-one] the “Cb = Component B (OIT), end-point concentration (MIC), alone or in mixture” value (“Cb = Component B (OIT)” for short) [1, 14] was 390, the “Cb = Component B (OIT)” value [1, 15] was 525 and the “MIC … (end point)” value [1, 11] was 390 ppm. For the same compound, the MIC [1, 7] was 390 µg/mL, the MIC [1, 8] was 415 µg/mL and the “Cb = Component B (OIT)” value ([5]; C. albicans ATCC # 10231, contact time 24 hour) was 1.3. For the same compound, the “Cb = Component B (OIT)” value ([5]; C. albicans ATCC # 10231, contact time 48 hour) was 1.3, the “MIC … (end point)” value ([5]; contact time 24 hour) was 0.9 ppm and the MIC [5, 16] was 0.6 µg/mL. The MIC ([5]; ATCC10231, 48 h, contact time 48 hour) was 0.9 µg/mL, the MIC [6, 17] was 3.3 µg/mL and the MIC [6, 18] was 3.3 µg/mL. For the same compound, the “Cb = Component B (OIT)” value [4, 12] was 63, the “Cb = Component B (OIT)” value [4, 13] was 78 and the MIC [4, 9] was 63 µg/mL. The MIC [4, 10] was 78 µg/mL.

With `CCCC1COC(Cn2cncn2)(c2ccc(Cl)cc2Cl)O1` (stereo not shown) [propiconazole] the “Ca = Component A (propiconazole), end-point concentration (MIC), alone or in mixture” value (“Ca = Component A (propiconazole)” below) [1, 14] was 800, the “Ca = Component A (propiconazole)” value [1, 15] was 800 and the “Ca = Component A (propiconazole)” value [5, 19] was 50. The “Ca = Component A (propiconazole)” value ([5]; C. albicans ATCC # 10231, contact time 24 hour, Component B OIT) was 50, the “Ca = Component A (propiconazole)” value [5, 20] was 50 and the “Ca = Component A (propiconazole)” value ([5]; C. albicans ATCC # 10231, contact time 48 hour, Component B OIT) was 50. The “Ca = Component A (propiconazole)” value [5, 21] was 50, the “Ca = Component A (propiconazole)” value ([6]; A. niger ATCC # 16404, contact time 3 days, Component B CMIT/MIT) was 20 and the “Ca = Component A (propiconazole)” value [6, 22] was 20. For the same compound, the “Ca = Component A (propiconazole)” value [6, 23] was 25, the MIC [6, 17] was 20 µg/mL and the MIC [6, 18] was 20 µg/mL. The “Ca = Component A (propiconazole)” value [4, 24] was 100, the “Ca = Component A (propiconazole)” value ([4]; S. aureus, contact time 24 hour, Component B OIT) was 100 and the “Ca = Component A (propiconazole)” value [4, 25] was 100. The “Ca = Component A (propiconazole)” value ([4]; S. aureus, contact time 48 hour, Component B OIT) was 100, the “Ca = Component A (propiconazole)” value [4, 26] was 100 and the MIC [4, 9] was 100 µg/mL.

In the case of `CC(C)(C)C(O)(CCc1ccc(Cl)cc1)Cn1cncn1` (stereo not shown) [tebuconazole], the “Ca = Component A (tebuconazole), end-point concentration (MIC), alone or in mixture” value (“Ca = Component A (tebuconazole)” below) ([1]; Ps. Aeruginosa ATCC # 9027, contact time 24 hour, Component B copper 8-hydroxyquinoline) is reported as 900, the MIC [1, 7] is reported as 900 µg/mL and the MIC [1, 8] is reported as 900 µg/mL. The “Ca = Component A (tebuconazole)” value [5, 19] was 50, the “Ca = Component A (tebuconazole)” value [5, 20] was 60 and the “Ca = Component A (tebuconazole)” value ([5]; C. albicans ATCC # 10231, contact time 48 hour, Component B CMIT/MIT) was 50. For the same compound, the “Ca = Component A (tebuconazole)” value [5, 21] was 60, the MIC [5, 16] was 50 µg/mL and the “Ca = Component A (tebuconazole)” value [6, 22] was 8. For the same compound, the “Ca = Component A (tebuconazole)” value [6, 23] was 8, the MIC [6, 17] was 8 µg/mL and the MIC [6, 18] was 8 µg/mL. For the same compound, the “Ca = Component A (tebuconazole)” value [4, 24] was 50, the “Ca = Component A (tebuconazole)” value [4, 25] was 50 and the “Ca = Component A (tebuconazole)” value ([4]; S. aureus, contact time 48 hour, Component B CMIT/MIT) was 50. For the same compound, the “Ca = Component A (tebuconazole)” value [4, 26] was 50, the MIC [4, 9] was 50 µg/mL and the MIC [4, 10] was 50 µg/mL.

In the case of `Cc1nc(C(F)(F)F)c(C(=O)Nc2c(Br)cc(OC(F)(F)F)cc2Br)s1` [thifluzamide], the “Cb = Component B (thifluzamide), end-point concentration, alone or in mixture” value ([2]; Component A DCOIT) is reported as greater than 960 and the “Cb = Component B (thifluzamide), end-point concentration, alone or in mixture” value ([3]; Component A DCOIT) is reported as 320.
